Reference: patent US8937183B2, “Detection of hydrogen peroxide” (Promega Corporation, priority 2011, dated 2015)

What was measured:
[1] = Signal strength differences due to reaction pH and buffer composition (hydrogen peroxide, D-cysteine conversion, LDR); assay type: biochemical; conditions: for Net Average Signals at 15 Minutes / Net Average Signals at 60 Minutes / Net Average Signals at 105 Minutes: 100 μl of 10 μM H2O2 added
Description: A 30 μl sample of 4 mg/ml PBI 4458 in DMSO was diluted to 1.5 ml with Nanopure water, and 50 μl added to wells A1-12 and E1-12 of a microtiter plate. A 30 μl sample of 4 mg/ml PBI 4472 in DMSO was diluted to 1.5 ml with Nanopure, and 50 μl added to wells B1-12 and F1-12 of the plate. A 30 μl sample of 4 mg/ml PBI 4480 in DMSO was diluted to 1.5 ml with Nanopure water, and 50 μl added to wells C1-12 and G1-12 of the plate. A 30 μl sample of 4 mg/ml PBI 4481 in DMSO was diluted to 1.5 ml with Nanopure water, and 50 μl added to wells D1-12 and H1-12 of the plate. To the plate, a 50 μl sample of 200 mM KHPO4, pH 7.4 was added to wells A1-D4; 50 μl 200 mM Tris buffer, pH 7.4 was added to wells A5-D8; 50 μl 250 mM HEPES buffer, pH 7.5 was added to wells A9-D12; 50 μl 200 mM KHPO4 buffer, pH 9.2 was added to wells E1-H4; 50 μl 250 mM Tris buffer, pH 10.4 was added to wells E5-H8; and 50 μl 100 mM CAPS buffer, pH 10.4 was added to wells E9-H12.
A sample of hydrogen peroxide (30%, Sigma, H1009-5 ml) was diluted to 10 μM with Nanopure water, and 100 μl added to columns 3, 4, 7, 8, 11, 12 wells A-H of the plate. 100 μl Nanopure water was added to columns 1, 2, 5, 6, 9 and 10 of the plate. The plate was incubated at room temperature for 15 minutes.
A conversion solution was made by mixing 5 ml of 1 M HEPES buffer, pH 7.5, 4.9 ml of Nanopure water and 100 μl of 100 mM D-cysteine (in Nanopure water), and […] added to all wells of a luminometer plate.
After incubation, 25 μl of sample from all wells in the plate was transferred and mixed into the corresponding wells in the luminometer plate, incubated 2-3 minutes at room temperature, and 50 μl LDR (Example 23) added. The luminometer plate was incubated for 15 minutes at room temperature, and bioluminescence detected on a GloMax® luminometer.
Additional samples were taken at 60 and 105 minutes and added to a fresh luminometer plates containing 25 μl of conversion solution in all wells. The plates were then incubated for 15 minutes at room temperature, and bioluminescence detected as previously described.

[2] = Light generation from compounds following incubation with hydrogen peroxide in different pH solutions (D-cysteine conversion, LDR); assay type: biochemical; conditions: for Signal to Background Ratios: signal with peroxide to background no peroxide
Description: In this experiment, various compounds were tested for their ability to detect hydrogen peroxide in different pH solutions. Several compounds are shown to give much better signal strength and signal to background ratios than PBI 3048 (Example 23). 4 mg/ml solutions of compounds PBI 4480, 4481, 4452, 4470, 4472, 3048 (FIGS. 1 and 2) were made by dissolving them in DMSO (Fluka 41641). 30 μl of the compound solutions was diluted to 1.5 ml with Nanopure water, and 50 μl aliquots added as follows into a white, 96-well luminometer plate: PBI 4481, row A1-12; PBI 4480, row B1-12; PBI 4452, row C1-12; PBI 3048, row D1-12; PBI 4472, row E1-12 and PBI 4470, row F1-12.
25 μl of 200 mM TRIS buffer, pH 7.6 was added to wells A1-F4, 25 μl of 200 mM TRIS buffer, pH 8.8 was added to wells A5-F8, and 25 μl of 200 mM Tris buffer, pH 10.4 was added […].
30% hydrogen peroxide (Sigma H 1009-5 ml) was diluted to 40 μM in Nanopure water, and 25 μl added to columns 3, 4, 7, 8, 11 and 12 of the plate. 25 μl water was added to columns 1, 2, 5, 6, 9, and 10 of the plate, and the plate incubated at room temperature for 60 minutes.
A conversion solution was made by mixing 100 μl of 100 mM D-cysteine, 1 ml Tris Buffer pH 8.8 and 8.9 ml nanopure water. After mixing, 80 μl of the solution was added to wells A1-F12 of a new luminometer plate.
After incubation, 20 μl of sample from wells A1-F12 of the first plate was transferred to the same well in the new luminometer plate. The new plate was incubated at room temperature for 5 minutes, 100 μl of LDR (Example 23) was added to wells A1-F12, and bioluminescence detected on a Glo Max® luminometer (Promega).
The RLUs for the duplicate wells were averaged. The averages for the wells containing hydrogen peroxide were compared to the wells without hydrogen peroxide at the same pH (Table 2). BZT is used to designate benzothiazole derivatives of the compounds.
The Signal to Background (S/B) ratio is used to compare assay reagents with very difference signal strengths. An assay with a higher S/B ratio is often considered a better assay than one with a smaller S/B ratio (with all other factors being relatively equal).

Compound: CC1(C)OB(c2ccc(COc3ccc4nc(C#N)sc4c3)c3ccccc23)OC1(C)C [PBI 4480, 6-((4-(4,4,5,5-tetramethyl-1,3,2-dioxaborolan-2-yl)naphthalen-1-yl)methoxy)benzo[d]thiazole-2-carbonitrile]
- Signal to Background Ratios at 15 Minutes ([1]; CAPS pH 10.4, 15 minutes): 12.1
- Net Average Signals at 15 Minutes ([1]; CAPS pH 10.4, 15 minutes): 1,799,015 RLU
- Signal to Background Ratios at 60 Minutes ([1]; CAPS pH 10.4, 60 minutes): 14.7
- Net Average Signals at 60 Minutes ([1]; CAPS pH 10.4, 60 minutes): 4,256,769 RLU
- Signal to Background Ratios at 105 Minutes ([1]; CAPS pH 10.4, 105 minutes): 12.6
- Net Average Signals at 105 Minutes ([1]; CAPS pH 10.4, 105 minutes): 7,150,225 RLU
- Signal to Background Ratios at 15 Minutes ([1]; HEPES pH 7.5, 15 minutes): 1.0
- Net Average Signals at 15 Minutes ([1]; HEPES pH 7.5, 15 minutes): −234 RLU
- Signal to Background Ratios at 60 Minutes ([1]; HEPES pH 7.5, 60 minutes): 1.7
- Net Average Signals at 60 Minutes ([1]; HEPES pH 7.5, 60 minutes): 29,727 RLU
- Signal to Background Ratios at 105 Minutes ([1]; HEPES pH 7.5, 105 minutes): 2.3
- Net Average Signals at 105 Minutes ([1]; HEPES pH 7.5, 105 minutes): 75,066 RLU
- Net Average Signals at 15 Minutes ([1]; KPO4 Ph 7.4, 15 minutes): 3,538 RLU
- Signal to Background Ratios at 15 Minutes ([1]; KPO4 pH 7.4, 15 minutes): 1.1
- Signal to Background Ratios at 60 Minutes ([1]; KPO4 pH 7.4, 60 minutes): 1.6
- Net Average Signals at 60 Minutes ([1]; KPO4 pH 7.4, 60 minutes): 38,198 RLU
- Signal to Background Ratios at 105 Minutes ([1]; KPO4 pH 7.4, 105 minutes): 1.9
- Net Average Signals at 105 Minutes ([1]; KPO4 pH 7.4, 105 minutes): 86,881 RLU
- Signal to Background Ratios at 15 Minutes ([1]; KPO4 pH 9.2, 15 minutes): 1.7
- Net Average Signals at 15 Minutes ([1]; KPO4 pH 9.2, 15 minutes): 37,330 RLU
- Signal to Background Ratios at 60 Minutes ([1]; KPO4 pH 9.2, 60 minutes): 3.6
- Net Average Signals at 60 Minutes ([1]; KPO4 pH 9.2, 60 minutes): 218,078 RLU
- Signal to Background Ratios at 105 Minutes ([1]; KPO4 pH 9.2, 105 minutes): 5.1
- Net Average Signals at 105 Minutes ([1]; KPO4 pH 9.2, 105 minutes): 587,867 RLU
- Signal to Background Ratios at 15 Minutes ([1]; TRIS pH 10.4, 15 minutes): 11.1
- Net Average Signals at 15 Minutes ([1]; TRIS pH 10.4, 15 minutes): 743,427 RLU
- Signal to Background Ratios at 60 Minutes ([1]; TRIS pH 10.4, 60 minutes): 17.9
- Net Average Signals at 60 Minutes ([1]; TRIS pH 10.4, 60 minutes): 1,903,885 RLU
- Signal to Background Ratios at 105 Minutes ([1]; TRIS pH 10.4, 105 minutes): 17.5
- Net Average Signals at 105 Minutes ([1]; TRIS pH 10.4, 105 minutes): 3,541,742 RLU
- Signal to Background Ratios at 15 Minutes ([1]; Tris pH 7.4, 15 minutes): 1.2
- Net Average Signals at 15 Minutes ([1]; Tris pH 7.4, 15 minutes): 7,845 RLU
- Signal to Background Ratios at 60 Minutes ([1]; Tris pH 7.4, 60 minutes): 2.0
- Net Average Signals at 60 Minutes ([1]; Tris pH 7.4, 60 minutes): 61,031 RLU
- Signal to Background Ratios at 105 Minutes ([1]; Tris pH 7.4, 105 minutes): 2.6
- Net Average Signals at 105 Minutes ([1]; Tris pH 7.4, 105 minutes): 162,663 RLU
- Signal to Background Ratios ([2]; pH 7.6): 4.5
- averaged RLUs (bioluminescence) ([2]; pH 7.6 TRIS buffer, No H2O2, 60 minutes): 146,664 RLU
- averaged RLUs (bioluminescence) ([2]; pH 7.6 TRIS buffer, With H2O2 (25 μl of 40 μM added), 60 minutes): 657,132 RLU
- Signal to Background Ratios ([2]; pH 8.8): 8.7
- averaged RLUs (bioluminescence) ([2]; pH 8.8 TRIS buffer, No H2O2, 60 minutes): 179,821 RLU
- averaged RLUs (bioluminescence) ([2]; pH 8.8 TRIS buffer, With H2O2 (25 μl of 40 μM added), 60 minutes): 1,563,422 RLU
- Signal to Background Ratios ([2]; pH 10.4): 20.0
- averaged RLUs (bioluminescence) ([2]; pH 10.4 Tris buffer, No H2O2, 60 minutes): 265,315 RLU
- averaged RLUs (bioluminescence) ([2]; pH 10.4 Tris buffer, With H2O2 (25 μl of 40 μM added), 60 minutes): 5,295,463 RLU
